Measurements: US20130035326A1 (AMBIT BIOSCIENCES CORPORATION, priority 2009, published 2013)
pIC50, pKd: −log10 of the molar value.

Experiments:
[1] = target: T1, FLT3 kinase (Homo sapiens, UniProt P36888); test: Competition binding assay, FLT3 Kd
T1 construct: made in house; host or cells: T7 phage display or HEK-293 cells
T1 sequence (P36888 27-993): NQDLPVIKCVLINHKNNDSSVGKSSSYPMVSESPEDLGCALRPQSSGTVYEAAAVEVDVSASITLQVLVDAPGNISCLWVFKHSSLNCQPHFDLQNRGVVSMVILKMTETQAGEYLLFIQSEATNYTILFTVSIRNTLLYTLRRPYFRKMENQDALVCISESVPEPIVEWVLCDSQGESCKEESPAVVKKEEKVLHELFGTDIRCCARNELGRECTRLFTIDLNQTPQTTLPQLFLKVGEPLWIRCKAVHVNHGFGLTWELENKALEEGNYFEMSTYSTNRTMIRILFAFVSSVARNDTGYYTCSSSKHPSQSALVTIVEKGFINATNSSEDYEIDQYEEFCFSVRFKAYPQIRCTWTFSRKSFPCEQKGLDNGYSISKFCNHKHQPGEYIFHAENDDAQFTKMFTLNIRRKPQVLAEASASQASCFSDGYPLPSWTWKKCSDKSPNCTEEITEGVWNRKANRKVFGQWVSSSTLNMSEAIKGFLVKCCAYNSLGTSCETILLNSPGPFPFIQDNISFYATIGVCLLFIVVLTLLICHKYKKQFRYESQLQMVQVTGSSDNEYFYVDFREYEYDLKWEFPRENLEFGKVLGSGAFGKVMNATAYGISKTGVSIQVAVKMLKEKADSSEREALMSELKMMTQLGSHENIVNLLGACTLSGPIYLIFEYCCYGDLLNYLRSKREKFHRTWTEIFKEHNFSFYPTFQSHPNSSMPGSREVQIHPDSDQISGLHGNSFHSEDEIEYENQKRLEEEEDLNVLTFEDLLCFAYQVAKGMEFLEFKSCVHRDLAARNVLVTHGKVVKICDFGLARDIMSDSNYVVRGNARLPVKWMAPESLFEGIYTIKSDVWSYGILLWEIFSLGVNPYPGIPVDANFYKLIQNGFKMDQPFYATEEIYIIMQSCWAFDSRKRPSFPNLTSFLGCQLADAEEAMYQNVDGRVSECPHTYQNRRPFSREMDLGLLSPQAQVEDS
Protocol: (§1) In certain embodiments, competition binding assays were performed as described in Fabian et al., Nature Biotechnology 2005, 23,329-336.
(§2) Competition binding assays used herein were developed, validated and performed as described in Fabian et al., Nature Biotechnology 2005, 23,329-336. Kinases were produced as fusions to T7 phage (See, Fabian et al. or WO04/015142) or alternatively, the kinases were expressed in HEK-293 cells and subsequently tagged with DNA for PCR detection (See, WO08/005,310). For the binding assays, streptavidin-coated magnetic beads were treated with biotinylated affinity ligands for 30 min at room temperature to generate affinity resins. The liganded beads were blocked with excess biotin and washed with blocking buffer (SeaBlock (Pierce), 1% BSA, 0.05% Tween 20, 1 mM DTT) to remove unbound ligand and to reduce non-specific binding. Binding reactions were assembled by combining kinase, liganded affinity beads, and test compounds in 1× binding buffer (20% SeaBlock, 0.17×PBS, 0.05% Tween 20, 6 mM DTT). Test compounds were prepared as 100× stocks in DMSO and diluted into the aqueous environment. Kds were determined using an eleven point threefold serial dilutions. DMSO or control compounds were was added to control assays lacking a test compound. Primary screen assays were performed in polypropylene 384-well plates in a final volume of 20-40 μL, while Kd determinations were performed in polystyrene 96-well plates in a final volume of 135 μL. The assay plates were incubated at room temperature with shaking for 1 hour to allow the binding reactions to reach equilibrium, and the affinity beads were washed extensively with wash buffer (1×PBS, 0.05% Tween 20) to remove unbound protein. The beads were then resuspended in elution buffer (1×PBS, 0.05% Tween 20, 0.5 μM non-biotinylated affinity ligand) and incubated at room temperature with shaking for 30 min. The kinase concentration in the eluates was measured by quantitative PCR.

[2] = target: T2, KIT kinase (Homo sapiens, UniProt P10721); test: Competition binding assay, KIT Kd
T2 construct: made in house; host or cells: T7 phage display or HEK-293 cells
Protocol: as §1, §2

[3] = system: MV4-11 cells; test: MV4-11 cell proliferation assay (Alamar Blue); assay type: cell-based; details: Homo sapiens, MV4-11, 72 h, 3 days incubation
Protocol: The compounds disclosed herein were tested in an MV4-11 cell proliferation assay to determine their cellular potency against Flt3. MV4-11 cells carry ITD mutation within juxtamembrane domain of Flt3 kinase which renders the kinase constitutively active. […] This assay measures the potency of compounds as Flt3 inhibitors by measuring the reduction of Alamar Blue reagent by viable cells.
MV4-11 cells were grown in an incubator at 37° C. under 5% CO2 in Iscove's media (Celgro) with 10% FBS. The cell density was kept between 1e5 and 8e5 cells/mL.
On day one of the experiment, cells were harvested and spun at 500 g for 5 min at 4° C., the supernatant aspirated and the cells resuspended in Iscove's media with 0.5% FBS. Cell density was maintained at 7.5e5 to achieve maximum viability of the cells. The resuspended cells were incubated at 37° C. in 5% CO2 overnight.
On day two of the experiment, cells were diluted to 6.4e5/mL with Iscove's media with 0.5% FBS. 100 μL of the cell suspension (64,000 cells) were aliquoted into each well of a 96-well TC-treated plate. Compounds were added at 9 different concentrations, with half-log intervals alongside a control reference compound serving as a positive control. Final DMSO concentration was kept at 0.5% and final volume at 200 μL. The cells were then incubated at 37° C. under 5% CO2 for 3 days.
On day five of the experiment, 40 μL of Alamar Blue reagent was added to each well and the mixture was allowed to incubate for 3 hours. Alamar Blue fluorescence was measured using SoftMax Pro software at 560 nm (excitation) and 590 nm (emission). IC50s were generated as an average of duplicates and represents the concentration of test compound that achieves 50% inhibition of cellular proliferation compared to negative control.

[4] = target: T3, CSF-1R kinase (Homo sapiens, UniProt P07333); test: Competition binding assay, CSF-1R Kd
T3 construct: made in house; host or cells: T7 phage display or HEK-293 cells
Protocol: as §1, §2

T3 sequence (P07333 20-972): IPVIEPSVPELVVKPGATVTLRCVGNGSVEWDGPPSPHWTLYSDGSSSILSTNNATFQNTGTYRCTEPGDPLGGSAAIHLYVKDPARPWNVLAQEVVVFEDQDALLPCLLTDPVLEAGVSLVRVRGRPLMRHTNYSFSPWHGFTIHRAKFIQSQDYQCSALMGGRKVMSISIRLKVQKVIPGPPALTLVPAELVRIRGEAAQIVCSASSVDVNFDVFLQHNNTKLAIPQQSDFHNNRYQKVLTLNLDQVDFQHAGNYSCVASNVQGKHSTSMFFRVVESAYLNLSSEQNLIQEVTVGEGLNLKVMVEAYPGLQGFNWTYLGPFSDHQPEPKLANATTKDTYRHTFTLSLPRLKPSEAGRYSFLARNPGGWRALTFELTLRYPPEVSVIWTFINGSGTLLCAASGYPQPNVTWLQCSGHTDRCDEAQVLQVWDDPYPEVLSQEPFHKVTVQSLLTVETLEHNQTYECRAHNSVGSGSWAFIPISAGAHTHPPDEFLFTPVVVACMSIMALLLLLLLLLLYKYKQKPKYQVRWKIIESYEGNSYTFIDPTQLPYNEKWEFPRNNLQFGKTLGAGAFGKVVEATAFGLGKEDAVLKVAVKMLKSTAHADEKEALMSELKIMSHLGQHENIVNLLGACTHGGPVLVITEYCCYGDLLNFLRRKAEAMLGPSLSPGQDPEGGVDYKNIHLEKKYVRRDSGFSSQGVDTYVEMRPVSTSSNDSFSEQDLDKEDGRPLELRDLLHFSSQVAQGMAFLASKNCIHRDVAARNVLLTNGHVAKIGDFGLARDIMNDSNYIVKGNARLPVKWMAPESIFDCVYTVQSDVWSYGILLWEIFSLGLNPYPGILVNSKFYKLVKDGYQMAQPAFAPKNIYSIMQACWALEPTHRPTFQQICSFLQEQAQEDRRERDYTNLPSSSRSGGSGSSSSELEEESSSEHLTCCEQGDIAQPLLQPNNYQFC
T2 sequence (P10721 26-976): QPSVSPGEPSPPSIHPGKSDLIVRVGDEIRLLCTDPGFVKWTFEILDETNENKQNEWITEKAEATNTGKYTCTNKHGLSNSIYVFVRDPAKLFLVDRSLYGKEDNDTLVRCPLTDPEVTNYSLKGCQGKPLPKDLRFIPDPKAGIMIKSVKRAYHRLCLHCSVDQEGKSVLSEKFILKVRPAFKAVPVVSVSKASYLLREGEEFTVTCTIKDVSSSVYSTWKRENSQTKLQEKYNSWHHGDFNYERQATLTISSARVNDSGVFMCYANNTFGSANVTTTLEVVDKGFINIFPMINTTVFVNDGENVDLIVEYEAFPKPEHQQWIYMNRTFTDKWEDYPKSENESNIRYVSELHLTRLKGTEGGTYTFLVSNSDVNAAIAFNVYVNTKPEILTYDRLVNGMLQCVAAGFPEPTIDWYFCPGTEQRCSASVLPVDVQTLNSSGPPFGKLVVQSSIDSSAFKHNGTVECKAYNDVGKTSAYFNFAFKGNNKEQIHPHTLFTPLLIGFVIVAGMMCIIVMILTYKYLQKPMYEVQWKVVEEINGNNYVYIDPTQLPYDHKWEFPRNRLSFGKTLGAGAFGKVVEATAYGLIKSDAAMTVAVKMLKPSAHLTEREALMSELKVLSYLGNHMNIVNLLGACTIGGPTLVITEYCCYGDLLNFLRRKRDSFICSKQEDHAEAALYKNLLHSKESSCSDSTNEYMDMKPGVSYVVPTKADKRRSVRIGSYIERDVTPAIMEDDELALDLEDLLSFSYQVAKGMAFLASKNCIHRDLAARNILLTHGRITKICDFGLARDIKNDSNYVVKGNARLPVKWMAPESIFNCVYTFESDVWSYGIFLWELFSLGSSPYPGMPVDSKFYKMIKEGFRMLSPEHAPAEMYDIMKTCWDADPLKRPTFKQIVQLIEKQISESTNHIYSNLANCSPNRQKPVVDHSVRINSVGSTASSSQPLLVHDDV

Structure (SMILES) | pKd [1] | pKd [2] | pIC50 [3] | pKd [4]
Nc1ccc(-c2ccc(NC(=O)Nc3cc(C4(C(F)(F)F)CC4)on3)cc2)cn1 [Example 33, 5-(4-(3-(5-(1-(trifluoromethyl)cyclopropyl)isoxazol-3-yl)ureido)phenyl)pyridin-2-aminium methanesulfonate] | ≥ 9.00 | ≥ 9.00 | ≥ 9.00 | ≥ 8.00
CC(C)(F)c1cc(NC(=O)Nc2ccc(-c3ccc(N)nc3)cc2)on1 [Example 32, 5-(4-(3-(3-(2-fluoropropan-2-yl)isoxazol-5-yl)ureido)phenyl)pyridin-2-aminium methanesulfonate] | ≥ 9.00 | ≥ 9.00 | 8.00 to 9.00 | ≥ 8.00
CC(C)(C)c1cc(NC(=O)Cc2ccc(-c3ccc(N)nc3C(F)(F)F)cc2)no1.CS(=O)(=O)O [Example 129, 5-(4-(2-(5-tert-butylisoxazol-3-ylamino)-2-oxoethyl)phenyl)-6-(trifluoromethybpyridin-2-aminium methanesulfonate] | 7.00 to 8.00 | 7.00 to 8.00 | 6.30 to 7.00 | < 6.30
CCN1CCCC1CNc1ccc(-c2ccc(NC(=O)Nc3cc(C(C)(C)C)on3)cc2)cn1 (stereo not shown) [Example 30, 1-(5-tert-butylisoxazol-3-yl)-3-(4-(6-((1-ethylpyrrolidin-2-yl)methylamino)pyridin-3-yl)phenyl)urea] | 8.00 to 9.00 | ≥ 9.00 | 7.00 to 8.00 | 7.00 to 8.00
CCC1(c2cc(NC(=O)Cc3ccc(-c4ccc(N)nc4)cc3)no2)CC1 [Example 171] | ≥ 9.00 | 8.00 to 9.00 | ≥ 9.00 | ≥ 8.00
CN1CCCC1CCNc1ccc(-c2ccc(NC(=O)Nc3cc(C(C)(C)C)on3)cc2)cn1 (stereo not shown) [Example 29, 1-(5-tert-butylisoxazol-3-yl)-3-(4-(6-(2-(1-methylpyrrolidin-2-yl)ethylamino)pyridin-3-yl)phenyl)urea] | ≥ 9.00 | ≥ 9.00 | 8.00 to 9.00 | ≥ 8.00
Cn1nc(C(C)(C)CF)cc1NC(=O)Nc1ccc(-c2ccc(N)nc2)cc1 [Example 90, 5-(4-(3-(3-(1-fluoro-2-methylpropan-2-yl)-1-methyl-1H-pyrazol-5-yl)ureido)phenyl)pyridin-2-aminium acetate] | 8.00 to 9.00 | 8.00 to 9.00 | 6.30 to 7.00 | 7.00 to 8.00
Cc1nc(-c2ccc(CC(=O)Nc3cc(C(C)(C)C)on3)cc2)c(C)nc1N [Example 174] | ≥ 9.00 | 8.00 to 9.00 | 7.00 to 8.00 | 6.30 to 7.00
CC(C)(C)c1cc(NC(=O)Cc2ccc(-c3cnc(NCCN4CCOCC4)nc3)cc2)no1 [Example 75, N-(5-tert-butylisoxazol-3-yl)-2-(4-(2-(2-morpholinoethylamino)pyrimidin-5-yl)phenyl)acetamide] | ≥ 9.00 | 8.00 to 9.00 | ≥ 9.00 | ≥ 8.00
COc1cc(-c2ccc(N)nc2)ccc1NC(=O)Nc1cc(C(C)(CF)CF)on1 [Example 68, 5-(4-(3-(5-(1,3-difluoro-2-methylpropan-2-yl)isoxazol-3-yl)ureido)-3-methoxyphenyl)pyridin-2-aminium methanesulfonate] | 8.00 to 9.00 | 8.00 to 9.00 | 7.00 to 8.00 | ≥ 8.00
CC(C)c1cc(NC(=O)Cc2ccc(-c3ccc(N)nc3)cc2)no1 [Example 186] | ≥ 9.00 | ≥ 9.00 | ≥ 9.00 | ≥ 8.00
CC(C)(C)c1cc(NC(=O)Cc2ccc(-c3cnc4ccc(=O)[nH]c4c3)cc2)no1 [Example 191] |  |  | 8.00 to 9.00 | 
CS(=O)(=O)CCNc1ccc(-c2ccc(CC(=O)Nc3cc(C4(C(F)(F)F)CC4)on3)cc2)cn1 [Example 188] |  | 8.00 to 9.00 | ≥ 9.00 | 7.00 to 8.00
Nc1cc(F)c(-c2ccc(CC(=O)Nc3cc(C4(C(F)(F)F)CC4)on3)cc2)cn1 [Example 189] |  | 8.00 to 9.00 | ≥ 9.00 | ≥ 8.00

Second part, the compound after the results:

pKd [1] | pKd [2] | pIC50 [3] | pKd [4] | Structure (SMILES)
≥ 9.00 | 8.00 to 9.00 | ≥ 9.00 | ≥ 8.00 | Cc1cc(-c2ccc(CC(=O)Nc3cc(C(C)(C)C)on3)cc2)cnc1N [Example 85, 5-(4-(2-(5-tert-butylisoxazol-3-ylamino)-2-oxoethyl)phenyl)-3-methylpyridin-2-aminium methanesulfonate]
8.00 to 9.00 | 7.00 to 8.00 | 8.00 to 9.00 | 7.00 to 8.00 | Cn1[nH]c2ncc(-c3ccc(CC(=O)Nc4cc(C(C)(C)C)on4)cc3)cc2c1=O [Example 181]
≥ 9.00 | 8.00 to 9.00 | 8.00 to 9.00 | ≥ 8.00 | CC(C)(C)c1cc(NC(=O)C(F)(F)c2ccc(-c3ccc(N)nc3)cc2)no1 [Example 178]
≥ 9.00 | 8.00 to 9.00 | 8.00 to 9.00 | ≥ 8.00 | CC(C)(C)c1cc(NC(=O)Cc2ccc(-c3cnc(N)nc3)cn2)no1 [Example 77, 2-(5-(2-aminopyrimidin-5-yl)pyridin-2-yl)-N-(5-tert-butylisoxazol-3-yl)acetamide]
≥ 9.00 | ≥ 9.00 | 8.00 to 9.00 | ≥ 8.00 | CC(C)(C)c1cc(NC(=O)Cc2ccc(-c3ccc(N)nc3)cn2)no1 [Example 76, 2-(6′-amino-3,3′-bipyridin-6-yl)-N-(5-tert-butylisoxazol-3-yl)acetamide]
≥ 9.00 | ≥ 9.00 | 8.00 to 9.00 | ≥ 8.00 | CC(C)(CO)c1cc(NC(=O)Nc2ccc(-c3ccc(N)nc3)cc2)no1 [Example 80, 1-(4-(6-aminopyridin-3-yl)phenyl)-3-(5-(1-hydroxy-2-methylpropan-2-yl)isoxazol-3-yl)urea]
≥ 9.00 | 8.00 to 9.00 | ≥ 9.00 | ≥ 8.00 | CC(C)(C)c1cc(NC(=O)Cc2ccc(-c3ccc(N)nc3)cc2)on1 [Example 84, 5-(4-(2-(3-tert-butylisoxazol-5-ylamino)-2-oxoethyl)phenyl)pyridin-2-aminium methanesulfonate]
